The text below walks through data of ChEMBL document CHEMBL1126425, “A partial pharmacophore for the platelet activating factor (PAF) receptor” (Bioorg Med Chem Lett, 1992).

This assay has as its target Platelet-activating factor receptor (Homo sapiens, UniProt P25105). Nature of the assay: Antagonistic activity for inhibition of [3H]PAF receptor binding to washed human platelet membranes.

Sequence of Platelet-activating factor receptor (P25105 whole entry): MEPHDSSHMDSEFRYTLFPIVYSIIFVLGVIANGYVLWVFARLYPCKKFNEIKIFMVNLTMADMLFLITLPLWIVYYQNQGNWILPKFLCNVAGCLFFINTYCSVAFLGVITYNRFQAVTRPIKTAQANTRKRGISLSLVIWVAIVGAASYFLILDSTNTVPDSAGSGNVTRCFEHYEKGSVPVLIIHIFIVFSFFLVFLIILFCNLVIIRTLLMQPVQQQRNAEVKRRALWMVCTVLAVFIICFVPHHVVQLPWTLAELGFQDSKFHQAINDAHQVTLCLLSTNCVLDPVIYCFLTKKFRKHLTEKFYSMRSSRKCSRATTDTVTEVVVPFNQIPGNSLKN

In the case of `O=C([C@@H]1CSC(c2cccnc2)N1)N1CCN(CCCc2ccccc2)CC1` (stereo partly drawn), the IC50 stood at 2.3 nM.
As for `CCOC[C@H](CC(C)C)NS(=O)(=O)c1ccc(Cn2c(C)nc3cnccc32)cc1`, the IC50 came out at 0.015 nM.
Consider `Cc1nc2ccccc2n1Cc1ccc(C(=O)N(C)C2CCCCC2)cc1`, for which the IC50 is 500 nM.
